According to patent publication US8916526B2, “Flavanone derivative” (National University Corporation Okayama University, priority 2009, dated 2014):
Converted amounts (≈) assume the structure as drawn.

Legend:
[1] = molecular target: T1, DNA gyrase of Escherichia coli (Escherichia coli, UniProt P0AES4+P0AES6); experiment: DNA gyrase inhibition (supercoiling assay kit), Exp. Ex. 1-2; assay type: biochemical; conditions: E. coli DNA gyrase supercoiling, relaxed pBR322, 37° C., 30 minutes; read-out: Gyrase inhibitory activity IC50 (converted)
T1 construct: purchased John Innes Enterprises #K0001
T1 sequence (P0AES4 whole entry, one chain of several): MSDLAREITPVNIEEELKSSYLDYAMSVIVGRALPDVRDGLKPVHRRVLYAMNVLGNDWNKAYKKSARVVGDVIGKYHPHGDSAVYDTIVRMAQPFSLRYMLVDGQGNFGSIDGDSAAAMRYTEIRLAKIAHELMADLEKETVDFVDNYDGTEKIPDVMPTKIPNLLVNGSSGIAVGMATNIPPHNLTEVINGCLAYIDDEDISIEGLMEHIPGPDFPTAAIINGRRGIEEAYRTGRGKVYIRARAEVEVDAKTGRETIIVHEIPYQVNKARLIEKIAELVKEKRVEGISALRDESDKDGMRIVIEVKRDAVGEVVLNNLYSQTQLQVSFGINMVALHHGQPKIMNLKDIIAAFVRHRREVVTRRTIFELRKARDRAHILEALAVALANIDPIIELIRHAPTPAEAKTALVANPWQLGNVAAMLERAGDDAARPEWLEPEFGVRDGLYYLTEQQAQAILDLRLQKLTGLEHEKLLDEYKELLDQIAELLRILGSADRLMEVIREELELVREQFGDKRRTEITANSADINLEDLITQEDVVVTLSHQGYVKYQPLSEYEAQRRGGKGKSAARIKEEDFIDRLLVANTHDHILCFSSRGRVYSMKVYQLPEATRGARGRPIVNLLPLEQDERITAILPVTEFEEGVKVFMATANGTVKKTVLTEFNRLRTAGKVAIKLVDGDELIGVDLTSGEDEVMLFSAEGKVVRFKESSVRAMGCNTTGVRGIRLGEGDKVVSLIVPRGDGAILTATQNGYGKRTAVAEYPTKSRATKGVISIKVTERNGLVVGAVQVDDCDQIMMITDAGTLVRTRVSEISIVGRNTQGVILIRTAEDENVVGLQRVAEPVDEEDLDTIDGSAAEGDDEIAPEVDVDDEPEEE
Procedure: As a kit for measurement of DNA gyrase of Escherichia coli, a product purchased from John Innes Enterprises (Gyrase Supercoiling assay kit #K0001) was used. Relaxed DNA was modified with gyrase into supercoiled DNA, and reaction products were separated by electrophoresis depending on the sizes of the molecular weights to examine anti-gyrase effects (IC50). One unit (1 U) of DNA gyrase and […] of relaxed pBR322 DNA were added to […] of the reaction solution, and the mixture was allowed to react at 37° C. for 30 minutes in the presence of 35 mM Tris-HCl (pH 7.5), 24 mM KCl, 4 mM MgCl2, 2 mM DTT, 1.8 mM spermidine, 1 mM ATP, 6.5% (w/v) glycerol, and 0.1 mg/ml BSA. The reactions were stopped using […] of a reaction stop solution (40% sucrose, 100 mM Tris-HCl (pH 7.5), 1 mM EDTA, 0.5 mg/ml bromophenol blue).

MSSA FDA 209P = experiment: In vitro infectivity assay (MIC), broth dilution, Exp. Ex. 1-1; assay type: cell-based, Staphylococcus aureus; conditions: Staphylococcus aureus; MSSA FDA 209P; Mueller-Hinton broth, 35° C., 24 hours; read-out: MIC MSS 209P
Procedure: (§1) The antibacterial activities were measured based on broth dilution techniques of international standards (Clinical Laboratory Standards Institute: CLSI). The activities were shown by minimum inhibitory concentrations (MICs) determined by inoculating the above-mentioned strains at a concentration of about 10^5 […] into Mueller-Hinton broth (manufactured by Difco) containing 0.85% NaCl in 96-well microplates and incubating the plates at 35° C. for 24 hours. Measurement was carried out three times.
(§2) The antibacterial activities of the compounds of the present invention against various strains such as methicillin-resistant Staphylococcus aureus (MRSA), vancomycin intermediate-resistant Staphylococcus aureus (VISA), methicillin-sensitive Staphylococcus aureus (MSSA), and vancomycin-resistant enterococci (VRE) were examined. Of the bacteria used in MIC measurement in this test example, clinical bacteria of MRSA (OM481 strain and OM584 strain) were supplied from Okayama University Hospital (Japan). An MRSA strain N315, a vancomycin intermediate-resistant Staphylococcus aureus (VISA) strain Mu50, and a methicillin-sensitive Staphylococcus aureus (MSSA) strain FDA 209P were used as controls. Vancomycin-resistant enterococcus (VRE) strains NCTC 12201 and FN-1 were supplied from the National Institute of Infectious Disease (Japan).

MRSA OM58 = experiment: as above; assay type: cell-based, Staphylococcus aureus; conditions: Staphylococcus aureus; MRSA OM58; Mueller-Hinton broth, 35° C., 24 hours; read-out: MIC MRSA OM58
Procedure: as §1, §2

VISA Mu50 = experiment: as above; assay type: cell-based, Staphylococcus aureus; conditions: Staphylococcus aureus; VISA Mu50; Mueller-Hinton broth, 35° C., 24 hours; read-out: MIC VISA Mu50
Procedure: as §1, §2

MRSA N315 = experiment: as above; assay type: cell-based, Staphylococcus aureus; conditions: Staphylococcus aureus; MRSA N315; Mueller-Hinton broth, 35° C., 24 hours; read-out: MIC MRSA N315
Procedure: as §1, §2

MRSA OM481 = experiment: as above; assay type: cell-based, Staphylococcus aureus; conditions: Staphylococcus aureus; MRSA OM481; Mueller-Hinton broth, 35° C., 24 hours; read-out: MIC MRSA OM481
Procedure: as §1, §2

VRE FN-1 = experiment: as above; assay type: cell-based, enterococci; conditions: Enterococcus; VRE FN-1; Mueller-Hinton broth, 35° C., 24 hours; read-out: MIC VRE FN-1
Procedure: as §1, §2

VRE NCTC12201 = experiment: as above; assay type: cell-based, enterococci; conditions: Enterococcus; VRE NCTC12201; Mueller-Hinton broth, 35° C., 24 hours; read-out: MIC VRE NCTC12201
Procedure: as §1, §2

[2] = tested on: Streptococcus pneumoniae R6; experiment: In vitro infectivity assay (MIC), Exp. Ex. 2-1; assay type: cell-based; conditions: Streptococcus pneumoniae, R6; Gram-positive; microdilution, MIC after 24 h; read-out: MIC S. Pneumoniae R6
[3] = tested on: Pseodomonas aeruginosa PAOI; experiment: Antibacterial activity (MIC) against Gram-negative strains, microdilution; assay type: cell-based; conditions: MIC after 24 h, read-out: MIC (Gram-nagative) PAO1
How it was run: (§3)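 CLSI broth microdilution in Mueller-Hinton broth with 0.85% NaCl, inoculum about 10^5 […]. Incubated 35° C for 24 hours; MIC taken as the minimum inhibitory concentration, measured three times.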

Escherichia coli K-12 = experiment: as above; assay type: cell-based; conditions: K12, MIC after 24 h, read-out: MIC (Gram-nagative) K-12
How it was run: as §3

E. coli DNA gyrase = molecular target: T2, E. coli DNA gyrase (Escherichia coli, UniProt P0AES4+P0AES6); experiment: DNA gyrase inhibition (supercoiling kit), Exp. Ex. 2-2; assay type: biochemical
T2 construct: purchased John Innes Enterprises #K0001
T2 sequence (P0AES4 whole entry, one chain of several): as above
How it was run: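 IC50 derived from gel electrophoresis separating supercoiled from relaxed DNA. Reactions ran 30 minutes at 37° C with 1 U gyrase, […] relaxed pBR322, 1 mM ATP and 4 mM MgCl2 in Tris-HCl buffer (pH 7.5), then stopped with EDTA-containing solution.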

[4] = tested on: Vancomycin-resistant enterococci NCTC 12201; experiment: In vitro infectivity assay (MIC), Exp. Ex. 2-1; assay type: cell-based; conditions: Enterococcus, NCTC 12201 / VRE; Gram-positive; microdilution, MIC after 24 h; read-out: MIC VRE NCTC 12201
How it was run: (§4)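 CLSI broth dilution; Mueller-Hinton + 0.85% NaCl; inoculum ~10^5 CUF/[…]; 35° C, 24 h; MIC read, n=3.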

[5] = tested on: Vancomycin-resistant enterococci FN-1; experiment: In vitro infectivity assay (MIC), Exp. Ex. 2-1; assay type: cell-based; conditions: Enterococcus, VRE; Gram-positive; microdilution, MIC after 24 h; read-out: MIC VRE FN-1
How it was run: as §4

[6] = tested on: Vancomycin intermediate-resistant Staphylococcus aureus Mu50; experiment: In vitro infectivity assay (MIC), Exp. Ex. 2-1; assay type: cell-based; conditions: Staphylococcus aureus, VISA; Gram-positive; microdilution, MIC after 24 h; read-out: MIC VISA Mu50
How it was run: as §4

[7] = tested on: Methicillin-resistant S. aureus COL; experiment: In vitro infectivity assay (MIC), Exp. Ex. 2-1; assay type: cell-based, Staphylococcus aureus; conditions: Staphylococcus aureus, MRSA; Gram-positive; microdilution, MIC after 24 h
[8] = tested on: Methicillin-resistant S. aureus OM481; experiment: In vitro infectivity assay (MIC), Exp. Ex. 2-1; assay type: cell-based, Staphylococcus aureus; conditions: Staphylococcus aureus, MRSA; Gram-positive; microdilution, MIC after 24 h; read-out: MIC MRSA OM481
How it was run: as §4

[9] = tested on: Methicillin-resistant S. aureus N315; experiment: In vitro infectivity assay (MIC), Exp. Ex. 2-1; assay type: cell-based, Staphylococcus aureus; conditions: Staphylococcus aureus, MRSA; Gram-positive; microdilution, MIC after 24 h; read-out: MIC MRSA N315
How it was run: as §4

[10] = tested on: Methicillin-resistant S. aureus OM584; experiment: In vitro infectivity assay (MIC), Exp. Ex. 2-1; assay type: cell-based, Staphylococcus aureus; conditions: Staphylococcus aureus, MRSA; Gram-positive; microdilution, MIC after 24 h; read-out: MIC MRSA OM584
How it was run: as §4

[11] = tested on: Methicillin sensitive S. aureus 209P; experiment: In vitro infectivity assay (MIC), Exp. Ex. 2-1; assay type: cell-based, Staphylococcus aureus; conditions: Staphylococcus aureus, 209P / MSSA; Gram-positive; microdilution, MIC after 24 h; read-out: MIC MSSA 209P
How it was run: as §4

[12] = molecular target: T3, Staphylococcus aureus Topoisomerase IV (Staphylococcus aureus, UniProt P0C1S7+P0C1U9); experiment: Topoisomerase IV inhibition (decatenation kit), Exp. Ex. 2-3; assay type: biochemical
T3 construct: purchased John Innes Enterprises
T3 sequence (P0C1U9 whole entry): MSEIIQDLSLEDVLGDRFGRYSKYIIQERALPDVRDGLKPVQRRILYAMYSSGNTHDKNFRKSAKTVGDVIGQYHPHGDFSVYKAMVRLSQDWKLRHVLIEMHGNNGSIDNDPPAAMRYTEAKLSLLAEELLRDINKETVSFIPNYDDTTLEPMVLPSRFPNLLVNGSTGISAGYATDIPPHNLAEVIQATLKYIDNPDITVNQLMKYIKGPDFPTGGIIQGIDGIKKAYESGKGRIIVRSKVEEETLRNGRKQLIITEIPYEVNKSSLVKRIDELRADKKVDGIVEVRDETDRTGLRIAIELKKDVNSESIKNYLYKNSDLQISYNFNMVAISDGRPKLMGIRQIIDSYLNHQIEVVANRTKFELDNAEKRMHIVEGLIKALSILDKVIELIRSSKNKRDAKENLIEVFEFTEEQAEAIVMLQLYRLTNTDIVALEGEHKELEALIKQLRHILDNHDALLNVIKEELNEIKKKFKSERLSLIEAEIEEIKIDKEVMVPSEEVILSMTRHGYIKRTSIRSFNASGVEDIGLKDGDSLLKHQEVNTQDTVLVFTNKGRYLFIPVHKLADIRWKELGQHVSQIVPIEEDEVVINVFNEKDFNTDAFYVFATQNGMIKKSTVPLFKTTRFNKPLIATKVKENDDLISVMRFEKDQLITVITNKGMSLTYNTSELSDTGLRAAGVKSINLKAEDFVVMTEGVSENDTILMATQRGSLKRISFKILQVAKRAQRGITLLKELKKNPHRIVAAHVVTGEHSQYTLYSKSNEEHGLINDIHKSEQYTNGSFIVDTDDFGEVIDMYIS
T3 sequence (P0C1S7 whole entry): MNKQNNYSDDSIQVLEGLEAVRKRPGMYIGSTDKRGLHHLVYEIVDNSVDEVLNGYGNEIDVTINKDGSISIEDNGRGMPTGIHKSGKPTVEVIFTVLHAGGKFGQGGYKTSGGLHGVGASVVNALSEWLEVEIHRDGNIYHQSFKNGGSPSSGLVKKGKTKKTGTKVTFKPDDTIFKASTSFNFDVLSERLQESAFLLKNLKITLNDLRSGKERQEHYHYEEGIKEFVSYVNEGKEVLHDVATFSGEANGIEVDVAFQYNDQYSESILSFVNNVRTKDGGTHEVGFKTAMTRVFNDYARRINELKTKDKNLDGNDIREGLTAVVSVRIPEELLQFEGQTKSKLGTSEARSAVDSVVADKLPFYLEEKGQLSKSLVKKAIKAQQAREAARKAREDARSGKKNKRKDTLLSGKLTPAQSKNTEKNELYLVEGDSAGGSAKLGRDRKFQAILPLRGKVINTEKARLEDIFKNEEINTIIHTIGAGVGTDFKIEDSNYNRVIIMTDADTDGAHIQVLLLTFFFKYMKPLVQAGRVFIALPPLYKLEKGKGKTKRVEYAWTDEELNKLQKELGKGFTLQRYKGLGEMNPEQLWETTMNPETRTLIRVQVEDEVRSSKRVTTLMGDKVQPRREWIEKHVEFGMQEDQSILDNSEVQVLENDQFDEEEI
How it was run: (§5)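 Decatenation of 200 ng kinetoplast DNA by 1 unit enzyme, 30 min at 37 °C. S. aureus: 50 mM Tris-HCl pH 7.5, 350 mM potassium glutamate, 1.5 mM ATP; E. coli: 50 mM HEPES-KOH pH 7.6, 100 mM potassium glutamate, 1 mM ATP. Products resolved on 1.0% agarose in TAE.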

[13] = molecular target: T4, Escherichia coli Topoisomerase IV (Escherichia coli, UniProt P0AFI2+P20083); experiment: as above; assay type: biochemical; conditions: decatenation of kDNA, 37° C., 30 minutes; read-out: IC50 (E. coli topoisomerase IV inhibitions)
T4 construct: purchased John Innes Enterprises
T4 sequence (P20083 whole entry): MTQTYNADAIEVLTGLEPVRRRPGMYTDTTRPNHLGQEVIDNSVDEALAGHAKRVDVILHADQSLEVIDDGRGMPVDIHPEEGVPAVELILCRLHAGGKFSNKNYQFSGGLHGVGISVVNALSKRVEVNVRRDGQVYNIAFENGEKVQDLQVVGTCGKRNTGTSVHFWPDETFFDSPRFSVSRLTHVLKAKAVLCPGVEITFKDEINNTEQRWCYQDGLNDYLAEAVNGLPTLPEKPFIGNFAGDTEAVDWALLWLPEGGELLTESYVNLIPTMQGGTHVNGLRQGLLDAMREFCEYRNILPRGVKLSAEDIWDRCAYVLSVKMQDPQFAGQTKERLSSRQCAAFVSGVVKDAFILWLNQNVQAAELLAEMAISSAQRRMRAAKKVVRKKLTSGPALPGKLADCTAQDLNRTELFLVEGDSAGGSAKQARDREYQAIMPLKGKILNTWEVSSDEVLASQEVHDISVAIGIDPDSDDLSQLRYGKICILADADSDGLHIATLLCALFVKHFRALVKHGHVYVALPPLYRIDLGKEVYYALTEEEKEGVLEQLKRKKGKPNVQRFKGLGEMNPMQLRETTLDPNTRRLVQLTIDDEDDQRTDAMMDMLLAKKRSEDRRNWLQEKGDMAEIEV
T4 sequence (P0AFI2 whole entry): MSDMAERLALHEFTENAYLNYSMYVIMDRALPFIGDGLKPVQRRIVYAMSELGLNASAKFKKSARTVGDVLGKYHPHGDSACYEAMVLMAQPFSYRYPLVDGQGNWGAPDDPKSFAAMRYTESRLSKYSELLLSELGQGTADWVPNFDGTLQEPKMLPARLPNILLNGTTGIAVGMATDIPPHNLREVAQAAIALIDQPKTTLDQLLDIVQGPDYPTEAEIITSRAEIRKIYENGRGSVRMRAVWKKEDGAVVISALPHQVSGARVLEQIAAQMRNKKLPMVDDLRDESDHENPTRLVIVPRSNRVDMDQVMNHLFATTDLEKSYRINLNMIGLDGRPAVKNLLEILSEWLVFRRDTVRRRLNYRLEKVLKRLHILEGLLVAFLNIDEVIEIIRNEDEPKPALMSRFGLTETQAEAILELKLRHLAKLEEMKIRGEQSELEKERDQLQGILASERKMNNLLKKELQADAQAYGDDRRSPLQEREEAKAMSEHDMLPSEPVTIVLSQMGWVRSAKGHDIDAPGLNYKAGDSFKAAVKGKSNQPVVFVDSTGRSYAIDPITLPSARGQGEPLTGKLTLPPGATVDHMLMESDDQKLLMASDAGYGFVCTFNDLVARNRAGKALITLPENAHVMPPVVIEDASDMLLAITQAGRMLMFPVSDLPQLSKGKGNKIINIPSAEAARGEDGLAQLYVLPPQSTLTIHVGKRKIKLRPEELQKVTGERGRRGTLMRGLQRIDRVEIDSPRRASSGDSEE
How it was run: as §5

SMILES	IC50 [1] [µM]	melting point [°C]	MIC (MSSA FDA 209P) [µg/mL]	MIC (MRSA OM58) [µg/mL]	MIC (VISA Mu50) [µg/mL]	MIC (MRSA N315) [µg/mL]	MIC (MRSA OM481) [µg/mL]	MIC (VRE FN-1) [µg/mL]	MIC (VRE NCTC12201) [µg/mL]	MIC [2] [µg/mL]	MIC [3] [µg/mL]	MIC (Escherichia coli K-12) [µg/mL]	IC50 (E. coli DNA gyrase) [µM]	MIC [4] [µg/mL]	MIC [5] [µg/mL]	MIC [6] [µg/mL]	MIC [7] [µg/mL]	MIC [8] [µg/mL]	MIC [9] [µg/mL]	MIC [10] [µg/mL]	other results
CC(=O)OC[C@H]1O[C@@H](Oc2c(-c3ccc(O)c(O)c3)oc3cc(O)cc(O)c3c2=O)[C@H](OC(C)=O)[C@@H](OC(C)=O)[C@@H]1OC(C)=O [Compound 16, 2-(3′4′-Dihydroxy)-5,7-dihydroxy-3-β-D-tetraacetylglucosyl-4H-chromen-4-one]	> 19	109 to 110	128 (≈ 202 µM)	128 (≈ 202 µM)	> 128	128 (≈ 202 µM)	128 (≈ 202 µM)	> 128	> 128	–	–	–	–	–	–	–	–	–	–	–	–
CCCc1ccc(C(=O)O[C@H]2[C@H](Oc3c(-c4ccc(O)c(O)c4)oc4cc(O)cc(O)c4c3=O)O[C@H](CO)[C@@H](O)[C@@H]2OC(=O)c2ccc(CCC)cc2)cc1 [Compound 15f, 2-(3′,4′-Dihydroxy)-5,7-dihydroxy-3-β-D-(2″,3″-di-p-propylbenzoyloxy)glucosyl-4H-chromen-4-one]	13.2	152 to 153	8 (≈ 10.6 µM)	32 (≈ 42.3 µM)	16 (≈ 21.1 µM)	8 (≈ 10.6 µM)	32 (≈ 42.3 µM)	8 (≈ 10.6 µM)	8 (≈ 10.6 µM)	–	–	–	–	–	–	–	–	–	–	–	–
CCCc1ccc(C(=O)OC[C@H]2O[C@@H](Oc3c(-c4ccc(O)c(O)c4)oc4cc(O)cc(O)c4c3=O)[C@H](OC(=O)c3ccc(CCC)cc3)[C@@H](O)[C@H]2O)cc1 [Compound 14b]	–	150 to 151	–	–	–	–	–	–	–	2 (≈ 2.64 µM)	> 128	> 128	0.77	4 (≈ 5.29 µM)	8 (≈ 10.6 µM)	4 (≈ 5.29 µM)	16 (≈ 21.1 µM)	4 (≈ 5.29 µM)	2 (≈ 2.64 µM)	4 (≈ 5.29 µM)	MIC [11]: 2 µg/mL (≈ 2.64 µM); IC50 [12]: 1.93 µM; IC50 [13]: 8.89 µM
CCOc1ccc(C(=O)O[C@H]2[C@H](Oc3c(-c4ccc(O)c(O)c4)oc4cc(O)cc(O)c4c3=O)O[C@H](CO)[C@@H](O)[C@@H]2OC(=O)c2ccc(OCC)cc2)cc1 [Compound 15e, 2-(3′,4′-Dihydroxy)-5,7-dihydroxy-3-β-D-(2″,3″-di-p-ethoxybenzoyloxy)glucosyl-4H-chromen-4-one]	10.8	122 to 123	8 (≈ 10.5 µM)	32 (≈ 42.1 µM)	16 (≈ 21 µM)	8 (≈ 10.5 µM)	32 (≈ 42.1 µM)	16 (≈ 21 µM)	16 (≈ 21 µM)	–	–	–	–	–	–	–	–	–	–	–	–
CCOc1ccc(C(=O)OC[C@H]2O[C@@H](Oc3c(-c4ccc(O)c(O)c4)oc4cc(O)cc(O)c4c3=O)[C@H](OC(=O)c3ccc(OCC)cc3)[C@@H](O)[C@H]2O)cc1 [Compound 14a, 2-(3″,4″-Dihydroxyphenyl)-5,7-dihydroxy-3-β-D-[2″,6″-di-O-(4-ethoxybenzoyl)]galactosyl-4H-chromen-4-one]	–	108 to 110	–	–	–	–	–	–	–	4 (≈ 5.26 µM)	> 128	> 128	0.43	8 (≈ 10.5 µM)	8 (≈ 10.5 µM)	4 (≈ 5.26 µM)	16 (≈ 21 µM)	4 (≈ 5.26 µM)	8 (≈ 10.5 µM)	4 (≈ 5.26 µM)	MIC [11]: 4 µg/mL (≈ 5.26 µM); IC50 [12]: 1.78 µM; IC50 [13]: 7.33 µM
